Test results published in ChEMBL document CHEMBL4414590, “Discovery of SIAIS178 as an Effective BCR-ABL Degrader by Recruiting Von Hippel-Lindau (VHL) E3 Ubiquitin Ligase” (J Med Chem, 2019).
Active and inactive are the calls of the source. The rule behind the calls is not given here.

Tests used:
[1] = target: von Hippel-Lindau disease tumor suppressor/Receptor-interacting serine/threonine-protein kinase 2 (Homo sapiens) (UniProt O43353+P40337); assay: Protac activity against VHL/RIPK2 in human K562 cells assessed as reduction in RIPK2 protein levels at 1 to 100 nM incubated for 16 hrs by Western blot analysis; type: cell-based
K562 [2] = assay: Growth inhibition of human K562 cells incubated for 2 days by CCK8 assay; type: functional, cell-based; conditions: K562, 48 h
[3] = target: T1, von Hippel-Lindau disease tumor suppressor/Tyrosine-protein kinase ABL1/Breakpoint cluster region protein (Homo sapiens, UniProt P00519+P11274+P40337); assay: Protac activity against VHL/BCR-ABL in human K562 cells assessed as induction of BCR-ABL degradation at 100 nM incubated up to 24 hrs by Western blot analysis; type: cell-based; conditions: TDE = time-dependent effect
Target sequence in this assay (P00519 whole entry, looked up, the tested form may be a part): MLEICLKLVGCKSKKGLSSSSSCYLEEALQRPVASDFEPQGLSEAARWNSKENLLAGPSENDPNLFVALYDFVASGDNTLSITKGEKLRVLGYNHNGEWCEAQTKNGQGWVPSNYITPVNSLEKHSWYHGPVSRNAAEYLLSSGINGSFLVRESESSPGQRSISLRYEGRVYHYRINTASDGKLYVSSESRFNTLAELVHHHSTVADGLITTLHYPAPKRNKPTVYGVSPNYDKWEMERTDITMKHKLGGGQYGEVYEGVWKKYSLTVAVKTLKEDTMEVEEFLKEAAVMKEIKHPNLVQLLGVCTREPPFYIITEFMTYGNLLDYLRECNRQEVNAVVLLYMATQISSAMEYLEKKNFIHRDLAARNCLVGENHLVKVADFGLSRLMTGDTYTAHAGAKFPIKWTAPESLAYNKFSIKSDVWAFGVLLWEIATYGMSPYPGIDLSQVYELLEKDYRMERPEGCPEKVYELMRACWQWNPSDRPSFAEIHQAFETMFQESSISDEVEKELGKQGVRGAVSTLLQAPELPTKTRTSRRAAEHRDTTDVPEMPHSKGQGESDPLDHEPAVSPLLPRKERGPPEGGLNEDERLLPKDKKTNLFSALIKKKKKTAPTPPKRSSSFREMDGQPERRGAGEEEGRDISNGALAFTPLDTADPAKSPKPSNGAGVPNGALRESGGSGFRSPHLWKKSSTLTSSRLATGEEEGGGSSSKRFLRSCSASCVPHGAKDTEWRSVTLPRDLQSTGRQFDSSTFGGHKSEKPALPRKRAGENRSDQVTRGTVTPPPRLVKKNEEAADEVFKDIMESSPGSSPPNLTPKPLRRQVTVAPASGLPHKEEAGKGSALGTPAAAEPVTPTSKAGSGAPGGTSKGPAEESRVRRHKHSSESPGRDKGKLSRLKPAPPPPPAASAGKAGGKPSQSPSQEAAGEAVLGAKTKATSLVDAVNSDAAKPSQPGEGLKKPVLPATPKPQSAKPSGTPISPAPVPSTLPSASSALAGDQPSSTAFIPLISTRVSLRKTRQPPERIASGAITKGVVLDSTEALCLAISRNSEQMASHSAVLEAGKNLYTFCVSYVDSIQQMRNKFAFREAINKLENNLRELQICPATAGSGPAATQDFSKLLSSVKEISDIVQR
Target sequence in this assay (P11274 whole entry, looked up, the tested form may be a part): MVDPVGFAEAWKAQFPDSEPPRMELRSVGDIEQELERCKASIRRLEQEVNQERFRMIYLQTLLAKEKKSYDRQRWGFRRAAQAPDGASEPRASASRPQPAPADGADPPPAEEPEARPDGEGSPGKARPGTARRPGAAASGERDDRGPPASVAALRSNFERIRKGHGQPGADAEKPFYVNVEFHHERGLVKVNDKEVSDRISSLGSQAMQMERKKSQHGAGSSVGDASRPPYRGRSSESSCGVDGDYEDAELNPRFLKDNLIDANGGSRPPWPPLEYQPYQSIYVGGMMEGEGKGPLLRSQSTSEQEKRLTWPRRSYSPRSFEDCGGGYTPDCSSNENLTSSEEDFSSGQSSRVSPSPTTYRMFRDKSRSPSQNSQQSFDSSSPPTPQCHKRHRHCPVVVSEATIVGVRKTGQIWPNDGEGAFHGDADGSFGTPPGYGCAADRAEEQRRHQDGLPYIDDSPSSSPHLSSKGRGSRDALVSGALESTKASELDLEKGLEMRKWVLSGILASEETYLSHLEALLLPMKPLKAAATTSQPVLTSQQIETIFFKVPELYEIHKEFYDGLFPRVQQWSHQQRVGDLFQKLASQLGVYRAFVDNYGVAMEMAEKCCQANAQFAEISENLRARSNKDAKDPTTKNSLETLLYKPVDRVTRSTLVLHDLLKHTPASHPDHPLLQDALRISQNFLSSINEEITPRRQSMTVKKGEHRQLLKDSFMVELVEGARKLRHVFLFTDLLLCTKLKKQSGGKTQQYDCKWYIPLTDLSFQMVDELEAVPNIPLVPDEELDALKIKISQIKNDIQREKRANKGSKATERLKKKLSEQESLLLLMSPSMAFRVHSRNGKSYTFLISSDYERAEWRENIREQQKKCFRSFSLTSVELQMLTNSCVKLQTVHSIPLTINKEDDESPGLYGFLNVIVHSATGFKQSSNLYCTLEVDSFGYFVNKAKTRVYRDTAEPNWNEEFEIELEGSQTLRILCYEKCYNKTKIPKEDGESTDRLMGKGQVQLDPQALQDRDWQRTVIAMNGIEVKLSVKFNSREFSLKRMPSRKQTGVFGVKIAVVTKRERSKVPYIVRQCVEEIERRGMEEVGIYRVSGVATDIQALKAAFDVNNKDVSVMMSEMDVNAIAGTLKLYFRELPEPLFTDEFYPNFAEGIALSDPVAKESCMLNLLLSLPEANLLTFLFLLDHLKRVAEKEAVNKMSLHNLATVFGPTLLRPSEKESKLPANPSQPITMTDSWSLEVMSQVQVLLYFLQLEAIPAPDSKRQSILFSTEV
Target sequence in this assay (P40337 whole entry, looked up, the tested form may be a part): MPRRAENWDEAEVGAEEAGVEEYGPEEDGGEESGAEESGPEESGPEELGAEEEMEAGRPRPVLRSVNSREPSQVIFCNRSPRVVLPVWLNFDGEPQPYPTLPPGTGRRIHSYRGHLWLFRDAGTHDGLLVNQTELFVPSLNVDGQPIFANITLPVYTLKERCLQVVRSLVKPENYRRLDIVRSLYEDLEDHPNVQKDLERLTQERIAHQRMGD

[4] = target: T1, von Hippel-Lindau disease tumor suppressor/Tyrosine-protein kinase ABL1/Breakpoint cluster region protein; assay: Induction of ternary complex formation between VHL and BCR-ABL (unknown origin) expressed in HEK293 cells expressing N-terminal BCR-ABL LgBit fusion protein and N-terminal SmBit-VHL fusion protein incubated for 1 hr by NanoBit technology based luciferase complementation assay; type: cell-based
Target sequence in this assay (P00519 whole entry, looked up, the tested form may be a part): as the sequence (P00519 whole entry, looked up, the tested form may be a part) above
Target sequence in this assay (P11274 whole entry, looked up, the tested form may be a part): as the sequence (P11274 whole entry, looked up, the tested form may be a part) above
Target sequence in this assay (P40337 whole entry, looked up, the tested form may be a part): as the sequence (P40337 whole entry, looked up, the tested form may be a part) above

K562 [5] = assay: Antitumor activity against luciferse expressing human K562 cells xenografted in NOD/SCID mouse assessed as attenuation of tumor progression at 5 to 15 mg/kg, ip QD for 12 days by serial volumetric analysis; type: functional, organism-based
[6] = target: von Hippel-Lindau disease tumor suppressor/Platelet-derived growth factor receptor beta (Homo sapiens) (UniProt P09619+P40337); assay: Protac activity against VHL/PDGFRbeta in human K562 cells assessed as reduction in PDGFRbeta protein levels at 1 to 100 nM incubated for 16 hrs by Western blot analysis; type: cell-based
[7] = target: von Hippel-Lindau disease tumor suppressor/Tyrosine-protein kinase Lck (Homo sapiens) (UniProt P06239+P40337); assay: Protac activity against VHL/LCK in human K562 cells assessed as reduction in Lck protein levels at 1 to 100 nM incubated for 16 hrs by Western blot analysis; type: cell-based
[8] = target: T1, von Hippel-Lindau disease tumor suppressor/Tyrosine-protein kinase ABL1/Breakpoint cluster region protein; assay: Protac activity against VHL/BCR-ABL in human K562 cell lysates assessed as induction of pull down of endogenous BCR-ABL at 10 to 100 nM in presence of excess immobilized GST-VBC bait by GST-pull down assay; type: subcellular; conditions: Lysate
Target sequence in this assay (P00519 whole entry, looked up, the tested form may be a part): as the sequence (P00519 whole entry, looked up, the tested form may be a part) above
Target sequence in this assay (P11274 whole entry, looked up, the tested form may be a part): as the sequence (P11274 whole entry, looked up, the tested form may be a part) above
Target sequence in this assay (P40337 whole entry, looked up, the tested form may be a part): as the sequence (P40337 whole entry, looked up, the tested form may be a part) above

U-937 = assay: Growth inhibition of human U937 cells incubated for 2 days by CCK8 assay; type: functional, cell-based
K562 [9] = assay: Antitumor activity against luciferse expressing human K562 cells xenografted in NOD/SCID mouse assessed as reduction in tumor burden at 5 to 15 mg/kg, ip QD for 12 days by bioluminescence imaging analysis; type: functional, organism-based
[10] = tested on: von Hippel-Lindau disease tumor suppressor/Tyrosine-protein kinase ABL1/Breakpoint cluster region protein (Homo sapiens), P00519+P11274+P40337 [T315A]; assay: Protac activity against VHL/BCR-ABL T315A mutant (unknown origin) expressed in human U937 cells assessed as induction of BCR-ABL degradation incubated for 16 hrs by Western blot analysis; type: cell-based
[11] = target: T1, von Hippel-Lindau disease tumor suppressor/Tyrosine-protein kinase ABL1/Breakpoint cluster region protein; assay: Protac activity against VHL/BCR-ABL in human K562 cells assessed as induction of BCR-ABL degradation by Western blot analysis; type: cell-based
[12] = target: T1, von Hippel-Lindau disease tumor suppressor/Tyrosine-protein kinase ABL1/Breakpoint cluster region protein; assay: Induction of ternary complex formation between VHL and BCR-ABL (unknown origin) expressed in HEK293 cells expressing N-terminal BCR-ABL LgBit fusion protein and N-terminal SmBit-VHL fusion protein at 1 uM incubated for 1 hr by NanoBit technology based luciferase complementation assay; type: cell-based
Target sequence in this assay (P00519 whole entry, looked up, the tested form may be a part): as the sequence (P00519 whole entry, looked up, the tested form may be a part) above
Target sequence in this assay (P11274 whole entry, looked up, the tested form may be a part): as the sequence (P11274 whole entry, looked up, the tested form may be a part) above
Target sequence in this assay (P40337 whole entry, looked up, the tested form may be a part): as the sequence (P40337 whole entry, looked up, the tested form may be a part) above

K562 [13] = assay: Growth inhibition of human K562 cells assessed as reduction in cell density at 20 times IC50 incubated for 12 hrs followed by drug wash-out and incubation in drug-free medium up to 144 hrs by CCK8 assay; type: functional, cell-based
[14] = target: Bcr/Abl fusion protein (Homo sapiens) (UniProt P00519+P11274); assay: Inhibition of BCR-ABL in human K562 cells assessed as reduction in STAT5 phosphorylation at 1 to 100 nM by Western blot analysis; type: cell-based
[15] = tested on: von Hippel-Lindau disease tumor suppressor/Tyrosine-protein kinase ABL1/Breakpoint cluster region protein (Homo sapiens), P00519+P11274+P40337 [F317V]; assay: Protac activity against VHL/BCR-ABL F317V mutant (unknown origin) expressed in human U937 cells assessed as induction of BCR-ABL degradation incubated for 16 hrs by Western blot analysis; type: cell-based
[16] = target: T1, von Hippel-Lindau disease tumor suppressor/Tyrosine-protein kinase ABL1/Breakpoint cluster region protein; assay: Protac activity against VHL/BCR-ABL in human K562 cell lysates assessed as induction of pull down of endogenous ABL at 10 to 100 nM in presence of excess immobilized GST-VBC bait by GST-pull down assay; type: subcellular; conditions: Lysate
Target sequence in this assay (P00519 whole entry, looked up, the tested form may be a part): as the sequence (P00519 whole entry, looked up, the tested form may be a part) above
Target sequence in this assay (P11274 whole entry, looked up, the tested form may be a part): as the sequence (P11274 whole entry, looked up, the tested form may be a part) above
Target sequence in this assay (P40337 whole entry, looked up, the tested form may be a part): as the sequence (P40337 whole entry, looked up, the tested form may be a part) above

[17] = target: T1, von Hippel-Lindau disease tumor suppressor/Tyrosine-protein kinase ABL1/Breakpoint cluster region protein; assay: Protac activity against VHL/BCR-ABL in NOD/SCID mouse xenografted with luciferse expressing human K562 cells assessed as induction of BCR-ABL degradation at 5 to 15 mg/kg, ip QD for 4 days by Western blotting analysis; type: functional, organism-based
Target sequence in this assay (P00519 whole entry, looked up, the tested form may be a part): as the sequence (P00519 whole entry, looked up, the tested form may be a part) above
Target sequence in this assay (P11274 whole entry, looked up, the tested form may be a part): as the sequence (P11274 whole entry, looked up, the tested form may be a part) above
Target sequence in this assay (P40337 whole entry, looked up, the tested form may be a part): as the sequence (P40337 whole entry, looked up, the tested form may be a part) above

[18] = Toxicity in NOD/SCID mouse xenografted with luciferse expressing human K562 cells assessed as effect on body weight at 5 to 15 mg/kg, ip QD for 12 days; type: organism-based; conditions: in vivo, 288 h
[19] = Permeability in human Caco2 cells at 10 uM incubated for 120 mins by LC-MS/MS analysis; type: ADME, cell-based; conditions: caco-2, 2 h
[20] = target: von Hippel-Lindau disease tumor suppressor/Mast/stem cell growth factor receptor Kit (Homo sapiens) (UniProt P10721+P40337); assay: Protac activity against VHL/KIT in human K562 cells assessed as reduction in Kit protein levels at 1 to 100 nM incubated for 16 hrs by Western blot analysis; type: cell-based
[21] = target: von Hippel-Lindau disease tumor suppressor/Tyrosine-protein kinase Yes (Homo sapiens) (UniProt P07947+P40337); assay: Protac activity against VHL/YES in human K562 cells assessed as reduction in Yes protein levels at 1 to 100 nM incubated for 16 hrs by Western blot analysis; type: cell-based
HEK293 = assay: Growth inhibition of human HEK293 cells incubated for 2 days by CCK8 assay; type: cell-based; conditions: hek293, 48 h

von Hippel-Lindau disease tumor suppressor/Tyrosine-protein kinase Lck (Homo sapiens), sequence (P06239 whole entry, looked up): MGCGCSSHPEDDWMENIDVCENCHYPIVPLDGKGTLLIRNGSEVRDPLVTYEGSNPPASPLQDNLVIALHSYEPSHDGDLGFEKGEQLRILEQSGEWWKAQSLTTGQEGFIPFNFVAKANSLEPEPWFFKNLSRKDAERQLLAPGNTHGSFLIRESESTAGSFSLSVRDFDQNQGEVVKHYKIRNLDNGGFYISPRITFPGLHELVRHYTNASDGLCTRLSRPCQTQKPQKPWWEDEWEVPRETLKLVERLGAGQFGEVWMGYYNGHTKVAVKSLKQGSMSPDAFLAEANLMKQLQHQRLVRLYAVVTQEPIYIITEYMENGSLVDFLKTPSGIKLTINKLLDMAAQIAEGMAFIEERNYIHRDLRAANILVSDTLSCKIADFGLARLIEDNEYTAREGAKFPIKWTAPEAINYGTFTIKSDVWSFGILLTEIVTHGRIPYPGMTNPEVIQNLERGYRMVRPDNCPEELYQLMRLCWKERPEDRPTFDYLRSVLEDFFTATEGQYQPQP
von Hippel-Lindau disease tumor suppressor/Tyrosine-protein kinase Lck (Homo sapiens), sequence (P40337 whole entry, looked up): as the sequence (P40337 whole entry, looked up, the tested form may be a part) above
von Hippel-Lindau disease tumor suppressor/Tyrosine-protein kinase Yes (Homo sapiens), sequence (P07947 whole entry, looked up): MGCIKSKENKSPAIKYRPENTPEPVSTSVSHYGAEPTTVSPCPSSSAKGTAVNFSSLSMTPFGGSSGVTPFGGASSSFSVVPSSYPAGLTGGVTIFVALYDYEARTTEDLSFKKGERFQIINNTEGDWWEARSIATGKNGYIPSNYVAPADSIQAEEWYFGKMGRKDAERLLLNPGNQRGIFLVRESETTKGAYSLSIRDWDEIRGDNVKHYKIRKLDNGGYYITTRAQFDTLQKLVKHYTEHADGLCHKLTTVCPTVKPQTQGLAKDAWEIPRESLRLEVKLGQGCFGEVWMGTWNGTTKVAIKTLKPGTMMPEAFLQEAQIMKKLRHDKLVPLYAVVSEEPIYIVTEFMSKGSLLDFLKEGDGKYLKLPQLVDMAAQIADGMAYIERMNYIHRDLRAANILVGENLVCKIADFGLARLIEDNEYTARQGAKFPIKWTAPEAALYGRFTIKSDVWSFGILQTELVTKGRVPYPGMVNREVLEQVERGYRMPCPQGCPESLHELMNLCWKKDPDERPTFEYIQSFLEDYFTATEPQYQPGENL
von Hippel-Lindau disease tumor suppressor/Tyrosine-protein kinase Yes (Homo sapiens), sequence (P40337 whole entry, looked up): as the sequence (P40337 whole entry, looked up, the tested form may be a part) above

Cc1nc(Nc2ncc(C(=O)Nc3c(C)cccc3Cl)s2)cc(N2CCN(C(=O)CCCCCCC(=O)N[C@H](C(=O)N3C[C@H](O)C[C@H]3C(=O)NCc3ccc(-c4scnc4C)cc3)C(C)(C)C)CC2)n1
Activity [1]: Dose-dependent effect
IC50 (K562 [2]): 0.024 µM
Activity [3]: Tde
Activity [4]: Active
Activity (K562 [5]): Dose-dependent effect
Activity [6]: Dose-dependent effect
Activity [7]: inactive
Activity [8]: Dose-dependent effect
growth inhibition (GI) (U-937): inactive
Activity (K562 [9]): Active
Activity [10]: inactive
Activity [11]: Dose-dependent effect
DC50 [11]: 0.0085 µM
Activity [12]: Active
growth inhibition (GI) (K562 [13]): Active
inhibition [14]: Active
Activity [15]: Dose-dependent effect
Activity [16]: Dose-dependent effect
Activity [17]: Dose-dependent effect
Activity [18]: Non-Toxic
permeability [19]: Permeable
Activity [20]: inactive
Activity [21]: inactive
growth inhibition (GI) (HEK293): Non-Toxic
